{"source": "patent US9902713B2", "about": "“Neuroprotective compounds and use thereof” (BOARD OF REGENTS OF THE UNIVERSITY OF TEXAS SYSTEM, priority 2013, dated 2018)", "key": {"blast-injured mice": {"tested_on": "blast-injured mice", "test": "Barnes maze after blast-mediated TBI", "format": "in vivo", "conditions": "for time in escape quadrant, probe test: treatment immediately after blast-injury, 10 mg/kg/d IP, FIG. 21A", "description": "Barnes maze: The Barnes maze evaluates cognition based on time spent in the escape area. There are 20 holes around the periphery of the round tabletop, one of which contains an escape chamber (shown in red), into which the animal is motivated to seek shelter after being placed on the open tabletop. The escape area is defined as 5 cm around the hole, and time spent in the escape area during the probe test is used to measure hippocampal-dependent memory, which is dependent on visual cue around the table.\nTo test the neuroprotective efficacy of P7C3-A20 and P7C3-S243, we employed a model of blast-induced TBI in which the blast wave is propagated following rupture of a mylar membrane (Mohan et al., 2013). Briefly, anesthetized mice are placed in an enclosed blast chamber constructed from an air tank partitioned into two sides. A sealed mylar membrane covers a small port between the two halves of the tank. When the pressure is increased in the side without the mouse, the membrane ruptures at ≈22 kilopascal (kPa), generating a blast wave that travels through the mouse's head. The head of the mouse is untethered and located in a padded holder, while the body is shielded from the blast by a metal tube. In all cases, the left side of the head faces the blast wave. As previously reported (Mohan et al., 2013), the intensity of the blast wave in our system is 149.8±2.09 kPa, and the duration of the total pressure (Blast wave+wind gust) is ≈10-15 milliseconds.\nThe Barnes maze consists of a circular table with holes equally spaced around the perimeter. One of these holes contains an escape cup, such that the mouse can enter the hole and hide in the cup to avoid exposure on the table. Testing in the Barnes maze was initiated 7 days after blast-injury. To begin, mice underwent 4 days of training, during which time they were allowed to find and enter the escape hole, and rest in the protective cup. By the 4th day of training, mice typically learn how to rapidly locate the escape hole, based on visual cues permanently positioned around the table throughout training. After 4 days of training, the cup is removed and the ability of the mouse to remember where the cup was previously located is assessed in the ‘probe test.’ Memory is reflected by measuring the amount of time the mouse spends in the area around where the cup was previously located.\nBlast-Mediated Traumatic Brain Injury. Mice were anesthetized with ketamine/xylazine ([…] respectively) and placed in an enclosed blast chamber (50 cm long and 33 cm wide) constructed from an air tank partitioned into two sides. One side was pressurized with a 13 cm opening between the partitions, covered with a Mylar membrane. The unpressurized partition contained a restraint 10 cm from the Mylar membrane into which the mouse was placed. The head was freely moving while a metal tube shielded the body. Compressed air was forced in to the pressurized partition until the Mylar membrane bursts at 22 kPa. The blast wave impacts the test animal inside a foam-lined restraint to reduce blunt impact trauma of the head against the metal tube. The left side of the head was closest the origin of the blast wave. Sham-injured animals were anesthetized in the same way and not subjected to the blast.\nBarnes Maze. The Barnes maze test assesses spatial learning and memory. It was conducted on a gray circular surface 91 cm in diameter with 20 holes 5 cm in diameter around the perimeter raised to a height of 90 cm (Stoelting Co.). The surface was brightly lit and open in order to motivate the test animal to learn the location of a dark escape chamber recessed under one of the 20 holes. The maze was placed inside a black circular curtain with four different visual cues (with different shapes and colors) for orientation to the permanent location of the escape chamber. Four days of training comprised of four trials per day were conducted for each animal. […]"}, "[1]": {"tested_on": "dopaminergic neurons within the substantia nigra", "test": "MPTP model of Parkinson's disease, TH+ neurons in SNc", "format": "in vivo, mice", "conditions": "IP, BID; for rescue of TH+ neurons: 10 mg/kg/d; for dose showing significant neuroprotective activity: 21 d after MPTP", "description": "The mouse model of neurogenesis involves protecting newborn hippocampal neurons from premature apoptotic cell death. We also sought to determine if P7C3-S243 could protect mature neurons from cell death. […] In the brain, MPTP is oxidized to 1-methyl-4-phenylpyridinium cation (MPP^+), which is selectively transported into dopaminergic neurons within the SNc.^xh Within these cells, MPP^+ acts as a mitochondrial poison, generating a pathology that resembles that of Parkinsonian patients.^xvii Under our assay conditions, treatment with drug was initiated a full 24 hours after the final dose of MPTP. This dosing regime ensures that any effect of the P7C3 class of compounds can be attributed to neuroprotective activity rather than to simply blocking the uptake or metabolism of MPTP.^xviii Mice were administered drug twice daily for 21 days, after which time they were sacrificed by transcardial perfusion. Fixed brains were sectioned through the SNc at […] intervals. Every fourth section was stained with antibodies specific to tyrosine hydroxylase (TH). The TH enzyme catalyzes the oxidation of L-tyrosine to L-DOPA, which is the first step in the biosynthesis of dopamine. Accordingly, the number of TH+ cells provides a quantification of the neuroprotective efficacy of P7C3 derivatives following MPTP exposure. Importantly, all microscopic analyses were performed blinded to treatment group.\nTo test efficacy of P7C3-S243 in the MPTP model of Parkinson's disease, mice were administered MPTP (30 mg/k/d) for 5 days. On the 6th day, treatment with drug was initiated at the indicated dose (IP, BID, 21 d). In FIG. 3 upper panel, bars indicate number of tyrosine hydroxylase positive cells detected by immunohistochemical staining of the substantia nigra; error bars indicate SEM; asterisks indicate p<0.01 (*), p<0.001 (**) or p<0.0001 (***) relative to the Veh+MPTP group; number of mice in each group are shown within the bars. In FIG. 3 lower panel, representative immunohistochemical pictures of TH staining in the SNc are shown for 5 mg/kg/d treatment groups; bar=[…]. […] Moreover, the enantiomeric specificity observed in the MPTP model of Parkinson's disease mirrored that observed in the mouse model of neurogenesis. […] In this side-by-side experiment, P7C3-S243 appears at least as effective as P7C3-A20, a compound that has proven efficacy in several animal models of neurodegenerative disease.\nMPTP Assay. As previously reported,^5 adult male C57BI/6 mice were individually housed for one week and then injected daily for 5 days with 30 mg/kg/day (i.p.) free base MPTP (Sigma). On day 6, 24 hours after receiving the fifth and final dose of MPTP, daily treatment with compound was initiated. Mice received twice daily doses of each compound (or vehicle) for the following 21 days, after which mice were sacrificed by transcardial perfusion with 4% paraformaldehyde. Brains were dissected, fixed overnight in 4% paraformaldehyde, and cryprotected in sucrose for freezing by standard procedures. […] Images were analyzed with a Nikon Eclipse 90i motorized research microscope with Plan Apo lenses coupled with Metamorph Image Acquisition software (Nikon). TH+ neurons were counted with Image J software (NIH) in every section by 2 blinded investigators and results were averaged and multiplied by the sectioning interval to determine the total number of TH+ neurons per SNc."}, "[2]": {"conditions": "single enantiomers, 3 mg/kg/d IP"}, "[3]": {"conditions": "3 and 30 mg/kg/d from 24 hours after injury"}, "[4]": {"conditions": "3 and 30 mg/kg/d from 36 hours after injury"}, "[5]": {"conditions": "from 48 hours after injury, any dose"}}, "note": "Entries after “also recorded” stand apart in the source; their conditions may differ."}
{"smiles": "COc1cccc(NCC(F)Cn2c3ccc(Br)cc3c3cc(Br)ccc32)c1", "note": "(stereo not shown) [P7C3-A20, N-(3-(3,6-dibromo-9H-carbazol-9-yl)-2-fluoropropyl)-3-methoxyaniline]", "values": [{"measurement": "time in escape quadrant, probe test", "setting": "blast-injured mice", "value": "restored the time spent in the escape quadrant to normal levels"}, {"measurement": "rescue of TH+ neurons", "setting": "[1]; 21 d", "value": "around 75%"}, {"measurement": "dose showing significant neuroprotective activity", "setting": "[1]", "value": 5, "unit": "mg/kg/day"}]}
{"smiles": "COc1cccc(NCC(F)Cn2c3ccc(Br)cc3c3cc(Br)ccc32)n1", "note": "(single isomer, unassigned; (-)) [(−)-P7C3-S243, (−)-N-(3-(3,6-dibromo-9H-carbazol-9-yl)-2-fluoropropyl)-6-methoxypyridin-2-amine]", "values": [{"measurement": "memory in probe test", "setting": "blast-injured mice; oral from 24 hours after injury, 3, 10 and 30 mg/kg/day", "value": "preserved memory"}, {"measurement": "learning (percent latency to escape)", "setting": "blast-injured mice; oral, 1 mg/kg/day", "value": "restored normal learning"}, {"measurement": "memory in probe test", "setting": "blast-injured mice; oral, 1 mg/kg/day", "value": "did not preserve memory"}, {"measurement": "learning (percent latency to escape)", "setting": "blast-injured mice; oral, 1, 3, 10 and 30 mg/kg/day", "value": "preserved of normal percent latency to escape"}, {"measurement": "percent quadrant time, probe test", "setting": "blast-injured mice; oral, 3, 10 and 30 mg/kg/day", "value": "potent preservation"}, {"measurement": "percent target entry, probe test", "setting": "blast-injured mice; oral, 3, 10 and 30 mg/kg/day", "value": "potent preservation"}, {"measurement": "percent quadrant time, probe test", "setting": "blast-injured mice; [2]", "value": "completely preserved normal performance"}, {"measurement": "percent target entry, probe test", "setting": "blast-injured mice; [2]", "value": "preserved normal performance"}, {"measurement": "learning (percent latency to escape)", "setting": "blast-injured mice; single enantiomers, 3 mg/kg/day from 24 hours after injury", "value": "learned the task as well as sham-injury mice"}, {"measurement": "percent time in escape area, probe test", "setting": "blast-injured mice; single enantiomers, IP from 24 hours after injury, 3 mg/kg/day", "value": "complete protection"}, {"measurement": "percent time in escape area, probe test", "setting": "blast-injured mice; single enantiomers, IP from 24 hours after injury, 3 mg/kg/day, listed as A, 3 mg/kg/day", "value": "protective"}, {"measurement": "time in escape quadrant, probe test", "setting": "blast-injured mice", "value": "nonsignificant trend"}, {"measurement": "neuroprotection by single enantiomers", "setting": "[1]; 21 d, FIG. 3", "value": "strongly protective"}]}
{"smiles": "COc1cccc(NCC(F)Cn2c3ccc(Br)cc3c3cc(Br)ccc32)n1", "note": "(racemic) [P7C3-S243, N-(3-(3,6-dibromo-9H-carbazol-9-yl)-2-fluoropropyl)-6-methoxypyridin-2-amine]", "values": [{"measurement": "learning (percent latency to escape)", "setting": "blast-injured mice; 0.3 mg/kg/day from 24 hours after injury", "value": "learned significantly worse than sham-injury mice"}, {"measurement": "learning (percent latency to escape)", "setting": "blast-injured mice; 30 mg/kg/day from 48 hours after injury", "value": "restored normal learning"}, {"measurement": "learning (percent latency to escape)", "setting": "blast-injured mice; 1, 3, 10 or 30 mg/kg/day from 24 hours after injury", "value": "learned the task as well as sham-injury mice"}, {"measurement": "percent quadrant time, probe test", "setting": "blast-injured mice; [3]", "value": "preserved a normal percent quadrant time"}, {"measurement": "percent target entry, probe test", "setting": "blast-injured mice; [3]", "value": "preserved a normal percent target entry"}, {"measurement": "percent quadrant time, probe test", "setting": "blast-injured mice; [4]", "value": "only the higher dose was significantly protective"}, {"measurement": "percent target entry, probe test", "setting": "blast-injured mice; [4]", "value": "only the higher dose was significantly protective"}, {"measurement": "learning (percent latency to escape)", "setting": "blast-injured mice; 3 and 30 mg/kg/day from 36 hours after injury", "value": "improved learning"}, {"measurement": "percent target entry, probe test", "setting": "blast-injured mice; IP 11 days, dose series, FIG. 22A", "value": "dose-dependently preserved performance"}, {"measurement": "percent quadrant time, probe test", "setting": "blast-injured mice; IP 11 days, dose series, FIG. 23A", "value": "dose-dependently preserved performance"}, {"measurement": "memory in probe test", "setting": "blast-injured mice; IP from 24 hours after injury, 0.3 mg/kg/day", "value": "did not preserve memory"}, {"measurement": "percent time in escape area, probe test", "setting": "blast-injured mice; IP from 24 hours after injury, 1 mg/kg/day", "value": "partial, though not statistically significant, protection"}, {"measurement": "percent time in escape area, probe test", "setting": "blast-injured mice; IP from 24 hours after injury, 3, 10 and 30 mg/kg/day", "value": "protected; also recorded: complete protection"}, {"measurement": "memory in probe test", "setting": "blast-injured mice; IP from 36 hours after injury, 3 mg/kg/day", "value": "did not improve memory"}, {"measurement": "percent time in escape area, probe test", "setting": "blast-injured mice; IP from 36 hours after injury, 30 mg/kg/d", "value": "partially efficacious"}, {"measurement": "percent time in escape area, probe test", "setting": "blast-injured mice; IP from 48 hours after injury, any dose (3 or 30 mg/kg/d)", "value": "no protective efficacy"}, {"measurement": "percent quadrant time, probe test", "setting": "blast-injured mice; [5]", "value": "no protective efficacy"}, {"measurement": "percent target entry, probe test", "setting": "blast-injured mice; [5]", "value": "no protective efficacy"}, {"measurement": "time in escape quadrant, probe test", "setting": "blast-injured mice", "value": "restored the time spent in the escape quadrant to normal levels"}, {"measurement": "rescue of TH+ neurons", "setting": "[1]; 21 d", "value": "over 85%"}, {"measurement": "dose showing significant neuroprotective activity", "setting": "[1]", "value": 1, "unit": "mg/kg/day"}]}
